From US11155668B2, “Contact-killing, QAC functionalized thermoplastic polyurethane for catheter applications” (THE UNIVERSITY OF AKRON, priority 2017, dated 2021)

Key:
P. aeruginosa = assay: 48 h biofilm formation assay in catheter tubing; format: cell-based, Pseudomonas aeruginosa (ATCC 27853)
Description: For post-fabrication functionalization of the inner lumen of allyl-TPU catheter tubing with Qx-SH reagents, 0.5 mL of an Ar purged solution containing Qx-SH (10.0 mM) and LAP (5.0 mM) was flowed through 25.0 cm segments of catheter tubing every 7.5 min for the duration of a 30 min pre-soak and 30 min UV treatment (or absence of UV for phys. ads. control). Following treatment, the catheter tubes were rinsed continuously for 30 s with DI water (3×), then rinsed continuously for 30 s with 10% EtOH (3×). All samples were blown dry with N2 and placed under vacuum for 24 h before X-ray photoelectron spectroscopy (XPS) analysis or ethylene oxide (EtO) sterilization.
For antimicrobial testing, blade-coated samples and catheter tubing of allyl-TPU were sterilized by EtO sterilization using an Anprolene benchtop sterilizer (Anderson Products, Inc., Haw River, N.C.) following the manufacturer's protocol to deliver approximately 0.5 cc·L^−1 of EtO gas over a 12 h sterilization cycle at 35% humidity and room temperature, followed by a 48 h purge under vacuum. The bacterial strains used in this study included Staphylococcus epidermidis (ATCC 12228), Staphylococcus aureus (25923), Escherichia coli (ATCC 25922), Pseudomonas aeruginosa (ATCC 27853), Enterococcus faecalis (ATCC 29212), and methicillin-resistant Staphylococcus aureus (MRSA) (ATCC BAA-41).
Biofilm formation was analyzed using overnight cultures of P. aeruginosa grown in TSB and adjusted to an OD600=0.10. An assembly of catheter tubing was prepared using aseptic techniques, and included COOK™ BEACON™ TIP TORCON NB™ Advantage catheter segments (25.0 cm in length) denoted as “CC” and numbered 1-4 from upstream (1) to downstream (4). The catheter assembly was connected using 18 gauge blunt tip stainless steel needles (˜25 mm in length) sterilized in 100% EtOH. CC segments were located before, after, and in between the untreated, phys. ads., and UV-treated allyl-TPU catheter segments modified with Q8-SH to account for any downstream influence of the experimental catheters. With a peristaltic pump flowing at 1.5 mL·min^−1, fresh bacterial inoculum was continuously streamed through the catheter assembly for 2 h, followed by FAB medium (0.10 mM CaCl2, 0.01 mM Fe-EDTA, 0.15 mM (NH4)2SO4, 0.33 mM Na2HPO4, 0.20 mM KH2PO4, 0.50 mM NaCl, 0.50% (wt/vol) casamino acids, 1.0 mM MgCl2, and 10 mM sodium citrate) for 48 h. Samples were fixed with 50 mL of a 4% paraformaldehyde solution, rinsed with 200 mL of PBS, and submerged in PBS for further testing.
Photographs of the catheter tubing were taken using a camera with a 16-megapixel Sony Exmor RS IMX240 sensor and […] lens. Catheter cross-sections were cut (ca. 2.5 mm in length) from each catheter segment, rinsed thoroughly with DI water, and lyophilized for 24 h for scanning electron microscopy (SEM) analysis. SEM was performed on gold sputter-coated samples using a JEOL-7401 Field Emission Scanning Electron Microscope (JEOL USA, Inc., Peabody, Mass.) at an accelerating voltage of 2.0 kV under 45× and 300× magnification. In addition, lyophilized cross-sections (3.0 mm in length) from randomly selected locations along each catheter segment were placed vertically on a glass slide and imaged under brightfield microscope at 4× magnification. Using Olympus VS-Desktop software, the % biofilm blockage was determined by measuring the inner luminal area of untreated catheters compared to the area of the biofilm on the interior of the contaminated catheters (Equation 1).
[formula] Results are reported as averages with standard deviations (n=3) for each catheter segment.

NIH/3T3 fibroblast cells = assay: Cell viability assay (LIVE/DEAD staining) on coated coverslips; format: cell-based; conditions: for cell viability relative to glass: 24 h
Description: NIH/3T3 fibroblast cells (ATCC CRL-1658) were used to assess cell viability (passage 9) on the allyl-TPU films. The 8% allyl-TPU was spin-coated on blank glass coverslips (1 wt. % in chloroform) and samples were annealed at 60° C. for 1 h, then kept under vacuum for 24 h. The coated coverslips were then treated and rinsed as previously described to produce a control, phys. ads., and UV-treated sample modified with Q8-SH. Samples were sterilized by short-wave UV sterilization for 30 minutes. Cells were seeded at a cell density of 194,000 cells/cm^2 and cultured for 24 hours in a 37° C. incubator. Samples were then removed and stained with a LIVE/DEAD™ Viability/Cytotoxicity Kit (ThermoFisher Scientific L3224). Slides were analyzed with a Keyence BZ-X700 microscope at 20× magnification. Pictograms were analyzed with ImageJ software for cell viability counting (n=5). All groups were compared to the glass slide control.

[1] = UV-treated allyl-TPU catheter, 48 h
[2] = phys. ads. allyl-TPU catheter, 48 h

CCCCCCCC[N+](C)(C)CCCCCCCCOC(=O)CCS.[Cl-] [Q8-SH]
biofilm formation compared to Cook catheter, untreated and phys. ads. controls (in words) (P. aeruginosa; UV-treated allyl-TPU catheter tubing, brightfield microscopy and SEM): more resistant to biofilm formation and less | % biofilm blockage (internal volume occlusion) (P. aeruginosa; UV-treated allyl-TPU catheter, inner lumen modified, 48 h, n=3): ca. 15% | reduction of biofilm blockage from CC1 (P. aeruginosa; [1]): 85% | reduction of biofilm blockage from the untreated control (P. aeruginosa; [1]): 69% | reduction of biofilm blockage from CC1 (P. aeruginosa; [2]): 77% | reduction of biofilm blockage from the untreated control (P. aeruginosa; [2]): 53% | cell viability relative to glass (NIH/3T3 fibroblast cells; UV-treated samples): > 90% | cytotoxicity towards mammalian cells (in words) (NIH/3T3 fibroblast cells; control, phys. ads. and UV-treated samples compared to a glass slide control, FIG. 68): non-cytotoxic | cell viability relative to glass (NIH/3T3 fibroblast cells; phys. ads. samples): > 90%
